Reference: article PMC12693701, “Glucosinolate-Derived Metabolites from Barbarea vulgaris (Brassicaceae): Evaluation of Antimicrobial, Antioxidant, and Anti-Inflammatory Potentials” (Molecules, 2025)
≈ marks a conversion by molar mass, not a printed value. Where two headings read alike, the source gives them in different places.

Experiments:
[1] = tested on: K. pneumoniae; assay: Microdilution MIC/MMC with resazurin; assay type: cell-based, Klebsiella pneumoniae; settings: for MIC: Klebsiella pneumoniae
Protocol: (§1) The antimicrobial activity was evaluated against 15 microorganisms. This included 11 bacterial strains: four standard strains (Staphylococcus aureus ATCC 25923, Bacillus subtilis ATCC 6633, Bacillus pumilus NCTC 8241, and Escherichia coli ATCC 25922) and six clinical or environmental isolates (Staphylococcus aureus, Escherichia coli, Bacillus cereus, Proteus mirabilis, Salmonella enterica, and Klebsiella pneumoniae). One probiotic strain, Bifidobacterium animalis subsp. lactis was tested. In addition, four fungal strains, Candida albicans ATCC 10231, Trichoderma viride ATCC 13233, Aspergillus flavus ATCC 9170, and Fusarium solani ATCC 11712 were tested. The bacterial strains were kept in glycerol stock at −80 °C and the fungal strains in paraffin oil stock at 4 °C.
(§2) Bacterial and yeast suspensions were prepared using the direct colony method, as previously described by Andrews. The turbidity of the initial suspensions was adjusted to match the 0.5 McFarland standard using a densitometer (Biosan, Riga, Latvia), corresponding to approximately 10^8 colony-forming units (CFU)/mL for bacterial cells and 10^6 CFU/mL for yeast cells. Subsequently, 1:100 dilutions of the initial suspensions were prepared in sterile 0.85% saline. Fungal spore suspensions were obtained by gently harvesting spores from agar slopes containing mature mycelial growth. The collected spore suspensions were then diluted 1:1000 in sterile 0.85% saline prior to use.
(§3) Antimicrobial activity was evaluated by determining the minimum inhibitory concentration (MIC) and minimum microbicidal concentration (MMC) using the microdilution plate method with resazurin as an indicator [28]. In the 96-well plates, 100 μL of Mueller–Hinton broth (Torlak, Belgrade, Serbia) for bacterial testing and Sabouraud broth (Torlak, Belgrade, Serbia) for fungal testing were dispensed into each well. The compounds under investigation were initially dissolved in a 10% dimethyl sulfoxide (DMSO) solution, followed by dilution in sterile distilled water, resulting in a working compound solution containing 1% DMSO. A 100 μL aliquot of the stock solution of the tested compound was added to the first row, and twofold serial dilutions were then carried out using a multichannel pipette. The resulting concentration range was from 5 to 0.039 mg/mL. The inoculated microtiter plates were incubated at 37 °C for 24 h for bacteria, at 28 °C for 48 h for yeasts, and at 28 °C for 72 h for molds.
(§4) Each test also included growth control and sterility control. All tests were conducted in duplicate. MIC was defined as the lowest concentration of tested compounds that prevented resazurin color change from blue to pink. For molds, MIC values of the tested compound were determined as the lowest concentration that inhibited visible mycelia growth. MMC was determined by inoculation of the nutrient agar medium by plating […] of samples from wells, where no indicator color change was recorded. At the end of the incubation period, the lowest concentration with no growth (no colony) was defined as MMC.
(§5) Doxycycline, ampicillin and amphotericin B (- Sigma-Aldrich, St. Louis, MO, USA) and ketoconazole (Hemofarm A.D., Vršac, Serbia) were dissolved in a nutrient liquid medium. Doxycycline is a broad-spectrum antibiotic effective against both aerobic and anaerobic Gram-positive and Gram-negative bacteria. Ampicillin, a beta-lactam antibiotic, primarily targets Gram-positive bacteria but also some Gram-negative strains. Amphotericin B is an antifungal drug often used for serious systemic fungal infections and is one of the effective treatments for fungal infections caused by Aspergillus sp. Ketoconazole is an antifungal agent used to inhibit the growth of Candida species.

[2] = tested on: E. coli; assay: Microdilution MIC/MMC with resazurin; assay type: cell-based, Escherichia coli; settings: E. coli isolate, compounds 1–8
Protocol: as §1, §2, §3, §4, §5

[3] = tested on: B. subtilis ATCC 6633; assay: Microdilution MIC/MMC with resazurin; assay type: cell-based, Bacillus subtilis; settings: for MIC: Bacillus subtilis, ATCC6633
Protocol: as §1, §2, §3, §4, §5

[4] = target: T1, Type I-B soybean lipoxygenase (Glycine max, UniProt P08170); assay: LOX inhibition assay; assay type: biochemical; settings: for inhibition at 100 µM: read-out: Percentage of LOX Inhibition
T1 sequence (P08170 1-839): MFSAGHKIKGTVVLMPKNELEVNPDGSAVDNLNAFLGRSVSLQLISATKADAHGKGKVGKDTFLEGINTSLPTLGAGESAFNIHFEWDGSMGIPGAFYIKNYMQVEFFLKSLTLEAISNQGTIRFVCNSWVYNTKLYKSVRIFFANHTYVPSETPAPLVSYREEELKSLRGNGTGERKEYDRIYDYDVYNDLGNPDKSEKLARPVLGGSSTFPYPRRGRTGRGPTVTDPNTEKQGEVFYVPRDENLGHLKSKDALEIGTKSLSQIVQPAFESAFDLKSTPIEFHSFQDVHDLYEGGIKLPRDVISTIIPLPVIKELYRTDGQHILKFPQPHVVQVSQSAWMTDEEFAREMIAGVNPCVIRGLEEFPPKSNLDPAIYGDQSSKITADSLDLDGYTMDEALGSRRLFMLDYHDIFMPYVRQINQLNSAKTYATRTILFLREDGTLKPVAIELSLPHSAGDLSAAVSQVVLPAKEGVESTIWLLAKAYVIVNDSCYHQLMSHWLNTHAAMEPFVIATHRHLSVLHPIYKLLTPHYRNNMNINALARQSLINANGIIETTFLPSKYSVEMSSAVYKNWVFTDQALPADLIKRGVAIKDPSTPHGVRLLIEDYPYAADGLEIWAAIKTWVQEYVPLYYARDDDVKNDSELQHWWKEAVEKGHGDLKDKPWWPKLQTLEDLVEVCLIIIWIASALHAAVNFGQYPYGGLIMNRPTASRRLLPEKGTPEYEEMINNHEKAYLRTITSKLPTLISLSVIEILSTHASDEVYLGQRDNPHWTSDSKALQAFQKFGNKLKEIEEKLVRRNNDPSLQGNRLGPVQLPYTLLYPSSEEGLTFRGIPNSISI
Protocol: Type I-B soybean lipoxygenase is a commonly used enzyme for studying the anti-inflammatory properties of various compounds [19]. The lipoxygenase (LOX) inhibition assay measures the enzyme’s ability to convert sodium linoleate to 13-hydroperoxylinoleic acid. The inhibition of the enzyme by the investigated compounds was determined by measuring the absorbance at 234 nm for each prepared sample. Specifically, the test compound, Tris buffer, an enzyme solution (5 × 10^3 units/mL in saline), and sodium linoleate (3 mM in Tris buffer, pH 9), were added to a UV cuvette, and the absorbance was recorded. […] All measurements were performed in triplicate.

[5] = tested on: B. animalis subsp. lactis; assay: Microdilution MIC/MMC with resazurin; assay type: cell-based, Bifidobacterium animalis subsp. lactis
Protocol: as §1, §2, §3, §4, §5

[6] = tested on: F. solani ATCC 11712; assay: Microdilution MIC/MMC; assay type: cell-based, Fusarium solani
Protocol: as §1, §2, §3, §4, §5

[7] = tested on: B. cereus; assay: Microdilution MIC/MMC with resazurin; assay type: cell-based, Bacillus cereus; settings: for MIC: Bacillus cereus
Protocol: as §1, §2, §3, §4, §5

[8] = K. pneumoniae, compounds 1–8, read-out: MIC
[9] = Escherichia coli, read-out: MIC
[10] = B. subtilis ATCC 6633, compounds 1–8
[11] = B. subtilis ATCC 6633, compounds 1–8, read-out: MIC
[12] = B. animalis subsp. lactis, compounds 1–8
[13] = Bifidobacterium animalis, B. animalis subsp. lactis, compounds 1–8, read-out: MIC
[14] = F. solani ATCC 11712, compounds 1–8
[15] = Fusarium solani, ATCC11712, F. solani ATCC 11712, compounds 1–8, read-out: MIC
[16] = B. cereus, compounds 1–8, read-out: MIC

SMILES | MMC ([1]; K. pneumoniae, compounds 1–8) [mg/mL] | MIC [1, 8] [µg/mL] | MMC [2] [mg/mL] | MIC [2, 9] [µg/mL] | MMC [3, 10] [mg/mL] | MIC [3, 11] [µg/mL] | inhibition at 100 µM ([4]; 100 µM, mean ± SD) [%] | IC50 ([4]; mean ± SD) [µM] | MMC [5, 12] [mg/mL] | MIC [5, 13] [µg/mL] | MMC [6, 14] [mg/mL] | MIC [6, 15] [µg/mL] | MMC ([7]; B. cereus, compounds 1–8) [mg/mL] | MIC [7, 16] [µg/mL] | further results
CSC(=S)NCCc1ccccc1 [Compound 1, Methyl phenethylcarbamodithioate] | 5 | 5000 (≈ 23.7 mM) | 5 | 2500 (≈ 11.8 mM) | >5 | 2500 (≈ 11.8 mM) | 47.5 ± 1.5 | 125.5 ± 0.4 | 2.5 | 1250 (≈ 5.91 mM) | 1.25 | 1250 (≈ 5.91 mM) | 5 | 5000 (≈ 23.7 mM) | –
S=C1NCC(c2ccccc2)O1 (racemic) [Compound 4, rac-5-Phenyl-1,3-oxazolidine-2-thione] | 5 | 2500 (≈ 13.9 mM) | 5 | 2500 (≈ 13.9 mM) | 5 | 2500 (≈ 13.9 mM) | 90.5 ± 0.1 | 61.6 ± 0.6 | 5 | 1250 (≈ 6.97 mM) | 3.75 | 2500 (≈ 13.9 mM) | 5 | 5000 (≈ 27.9 mM) | –
Oc1ccc(CCN=C=S)cc1 [Compound 8, 2-(4-hydroxyphenyl)ethyl isothiocyanate] | 0.625 | – | 0.625 | – | >5 | – | – | – | 0.625 | – | <0.039 | – | 1.25 | – | MIC [1]: 312 µg/mL (≈ 1.74 mM); MIC [2]: <39 µg/mL; MIC ([2]; Escherichia coli): 39 µg/mL (≈ 0.218 mM); MIC [3]: 312 µg/mL (≈ 1.74 mM); inhibition at 100 µM [4]: 21.2 ± 0.3%; MIC [5, 12]: <39 µg/mL; MIC ([5]; Bifidobacterium animalis): < 39 µg/mL; MIC [6, 14]: <39 µg/mL; MIC ([6]; Fusarium solani, ATCC11712): < 39 µg/mL; MIC [7]: 156 µg/mL (≈ 0.87 mM)
S=C1NC[C@H](c2ccccc2)O1 [Compound 5, (S)-5-phenyl-1,3-oxazolidine-2-thione] | 5 | 5000 (≈ 27.9 mM) | 5 | 5000 (≈ 27.9 mM) | >5 | > 5000 | 40 ± 0.5 | 123 ± 1.5 | 5 | 1250 (≈ 6.97 mM) | >5 | 5000 (≈ 27.9 mM) | >5 | > 5000 | –
O=C1NCC(c2ccccc2)O1 (stereo not drawn) [Compound 7, 5-Phenyl-1,3-oxazolidin-2-one] | 2.5 | 2500 (≈ 15.3 mM) | 2.5 | 1250 (≈ 7.66 mM) | 5 | 5000 (≈ 30.6 mM) | 18.3 ± 0.3 | – | 5 | 2500 (≈ 15.3 mM) | 2.5 | 2500 (≈ 15.3 mM) | 5 | 5000 (≈ 30.6 mM) | –
O=C1NCC(c2ccccc2)S1 (stereo not drawn) [Compound 6, 5-phenyl-1,3-thiazolidin-2-one] | >5 | > 5000 | >5 | > 5000 | >5 | > 5000 | 34.6 ± 0.4 | – | >5 | > 5000 | >5 | > 5000 | >5 | > 5000 | –
CSC(=S)NCCc1ccc(O)cc1 [Compound 2, methyl-4-hydroxyphenylethyl dithiocarbamate] | 0.625 | 625 (≈ 2.75 mM) | 0.312 | 312 (≈ 1.37 mM) | 1.25 | 78 (≈ 0.343 mM) | 55.5 ± 0.1 | 97.4 ± 1.3 | 0.625 | 78 (≈ 0.343 mM) | 0.234 | 156 (≈ 0.686 mM) | 0.625 | 156 (≈ 0.686 mM) | –
O=C(O)C1CSC(=S)N1 (stereo not drawn) [Compound 3, 2-Thioxothiazolidine-4-carboxylic Acid] | 2.5 | 2500 (≈ 15.3 mM) | 5 | 1250 (≈ 7.66 mM) | 5 | 2500 (≈ 15.3 mM) | 23.8 ± 0.8 | – | 2.5 | 625 (≈ 3.83 mM) | 0.625 | 625 (≈ 3.83 mM) | 2.5 | 2500 (≈ 15.3 mM) | –
